In patent US12239643B2, “Therapeutic agent for inflammatory diseases, autoimmune diseases, fibrotic diseases, and cancer diseases” (MEIJI SEIKA PHARMA CO., LTD., priority 2018, dated 2025):
Like-named read-outs stand apart in the source and are kept apart here.

Key:
PDE4 = assay: Evaluation of PDE4 inhibitory activity, scintillation proximity assay; format: biochemical
Procedure, shortened: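 IC50 was derived from inhibition curves, referenced to an enzyme-free blank and a DMSO-only control. Compound, PDE4 preparation and tritiated cAMP reacted 120 min at RT in Tris-HCl buffer (pH 7.4) with MgCl2, EGTA and BSA; YSi-SPA beads with ZnSO4 bound product before scintillation counting.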

[1] = Hepatic metabolic stability (rat liver microsome method); format: in vitro ADME; settings: rat liver microsomes 0.5 mg/mL, test substance 1 μM, NADPH 1 mM, 37° C., 30 minutes
Procedure, shortened: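 Scored by % parent left after 30 min (30 min/0 min ×100, LC-MS), banded A ≥75%, B 60–<75%, C 45–<60%, D <45%. Incubation: 1 μM compound, 0.5 mg/mL rat microsomes, pH 7.4 phosphate buffer, 37° C, 5 min preincubation, NADPH 1 mM started, acetonitrile quench.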

TNFα [2] = assay: Cytokine suppression using whole human blood: TNFα (lipopolysaccharide stimulus); format: cell-based; settings: Homo sapiens, human whole blood; read-out: TNFα Inhibitory Activity, Human Whole Blood (Test Example 3)
Protocol: The test compound dissolved in dimethyl sulfoxide was added to a 96-well plate, and RPMI-1640 medium and human peripheral blood containing sodium heparin were added, followed by culture at 37° C. under 5% CO2 for 1 hour. A medium containing only dimethyl sulfoxide instead of the test compound was added to the control well. To each well, lipopolysaccharide (final concentration 10 ng/mL) as a TNFα production stimulant, or phytohaemagglutinin (final concentration 20 μg/mL) as an IL-17A production stimulant, or CytoStim reagent ( 1/100 concentration) and CD28 antibody (final concentration 2.5 ng/mL) as an IL-4 production stimulant and an IL-5 production stimulant were added, followed by culture at 37° C. under 5% CO2. The culture was carried out for about 18 hours for the evaluation of the amount of TNFα, and for about 48 hours for the evaluation of the amounts of IL-17A, IL-4, and IL-5.
After collecting the culture supernatant after culturing, the amount of each cytokine was measured by the sandwich ELISA method. The cytokine production suppression rate (inhibition rate) by the test compound was calculated by the following formula from the cytokine production amount when the test compound was added, with the cytokine production amount for the control well as 100%. Inhibition Rate={1−(Cytokine Amount at Addition of Each Test Compound)/(Cytokine Amount for Control Well)}×100
In addition, the cytokine inhibitory activity (concentration for the inhibition rate of 50%) of the test compound was calculated from the inhibition curves based on the inhibition rates for various concentrations of the test compound.
The measurement results obtained by measuring the TNFα inhibitory activity and IL-5 inhibitory activity (50% inhibitory concentration) of the test compounds by the above method were evaluated in accordance with the following evaluated basis; A: less than 100 nM, B: 100 nM or more and less than 500 nM, and C: 500 nM or more. In addition, the measurement results obtained by measuring the IL-17A inhibitory activity and IL-4 inhibitory activity (50% inhibitory concentration) of the test compounds were evaluated in accordance with the following evaluated basis; A: less than 500 nM, B: 500 nM or more and less than 5000 nM, and C: 5000 nM or more.

[3] = system: oxazolone-induced auricle edema, BALB/c mice; assay: Hapten repeated application mouse chronic dermatitis model (oral, topical); format: in vivo; settings: for Mouse Chronic Dermatitis Model (Test Example 8), Topical: edema suppression rate: 20 μL of 0.3 to 3% solution once or twice a day for 10 days
Procedure, shortened: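 Female BALB/c mice aged 7–8 weeks were sensitised abdominally with 3% oxazolone, then challenged on both ears with 1% oxazolone. From week 1, test compound was given for 10 days orally at 0.3–10 mg/kg twice daily in 0.5% MC, or topically at 0.3–3% once or twice daily. Ear-thickness change measured by dial gauge gave edema suppression versus vehicle control.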

[4] = system: oxazolone-induced auricle edema, BALB/c mice; assay: Mouse delayed type hypersensitivity (DTH) model (topical); format: in vivo; settings: 20 μL applied to auricle, 24 hours after application
Protocol: Evaluation was carried out using female BALB/c mice (7 to 8 weeks of age). First, the hair of the abdomen of the mice was treated with a hair clipper, and then 150 μL of a 3% oxazolone acetone/ethanol solution was applied to the abdomen as a hapten. Five days later, 20 μL/ear of a 1% oxazolone.acetone/ethanol solution was applied to the outer surface of the auricle of both ears of the mouse to induce inflammation. Thirty minutes after the start of inflammation induction, 20 μL of the test compound dissolved in an acetone/ethanol solution was applied to the auricle. A 1% oxazolone was not applied to the blank. The control was one in which 1% oxazolone was applied and only an acetone/ethanol solution was applied without using the test compound. The auricle thickness 24 hours after application of the test compound was measured with a dial thickness gauge, and the value obtained by subtracting the blank value was used to calculate the edema suppression rate by the following formula. Edema Suppression Rate (%)={1−(Value at Addition of Each Test Compound−Blank Value)/(Control Value−Blank Value)}×100 The measurement results obtained by measuring the edema suppression rate at the time of topical administration of each test compound by the above method were evaluated in accordance with the following evaluated basis; A: 60% or more, B: 40% or more and less than 60%, and C: less than 40%.

TNFα [5] = assay: Cytokine suppression using human peripheral blood mononuclear cells: TNFα; format: cell-based; settings: human PBMC, lipopolysaccharide 1 ng/mL; read-out: TNFα Inhibitory Activity, Human PBMC (Test Example 4)
Protocol: First, peripheral blood mononuclear cells (PBMC) were separated from whole blood by specific gravity centrifugation. Then, the isolated peripheral blood mononuclear cells were added to RPMI-1640 medium (containing 10% fetal bovine serum, penicillin, streptomycin, L-glutamine, and 2-mercaptoethanol), and cultured in a 96-well plate at 37° C. under 5% CO2 for 0 to 1 hour. The test compound dissolved in dimethyl sulfoxide was added to each well, followed by further culture at 37° C. under 5% CO2 for 1 hour. A medium containing only dimethyl sulfoxide instead of the test compound was added to the control well. To each well, lipopolysaccharide (final concentration 1 ng/mL) as a TNFα production stimulant and an IL-23 production stimulant, or concanavalin A (final concentration 20 μg/mL) as an IL-17A production stimulant was added, followed by culture at 37° C. under 5% CO2. In addition, as IL-4 production stimulus, IL-5 production stimulus, and IL-13 production stimulus, PBMC was seeded on a 96-well plate previously coated with a CD3 antibody (final concentration 3 μg/mL), and a CD28 antibody (final concentration 5 ng/mL) was added. The culture was carried out for about 18 hours for the evaluation of the amounts of TNFα and IL-23, and about 48 hours for the evaluation of the amounts of IL-17A, IL-4, IL-5, and IL-13. After collecting the culture supernatant after culturing, the amount of each cytokine was measured by the sandwich ELISA method in the same manner as in Test Example 3, and the cytokine production suppression rate (inhibition rate) and the cytokine inhibitory activity (concentration for the inhibition rate of 50%) of each test compound were calculated.
The measurement results obtained by measuring the TNFα inhibitory activity and IL-5 inhibitory activity (50% inhibitory concentration) of the test compounds by the above method were evaluated in accordance with the following evaluated basis; A: less than 10 nM, B: 10 nM or more and less than 100 nM, and C: 100 nM or more. In addition, the measurement results obtained by measuring the IL-17A inhibitory activity, IL-23 inhibitory activity, IL-4 inhibitory activity, and IL-13 inhibitory activity (50% inhibitory concentration) of the test compounds were evaluated in accordance with the following evaluated basis; A: less than 500 nM, B: 500 nM or more and less than 5000 nM, and C: 5000 nM or more.

[6] = system: substance P-induced pruritus behavior, ICR mice; assay: Mouse pruritus model; format: in vivo; settings: oral, substance P intradermally 2 hours after administration
Protocol: Evaluation was carried out using male ICR mice (5 to 7 weeks of age). A micro magnet was embedded under the skin of both hind limbs of the mice in advance, and the hair on the back of the mouse neck was shaved. On the day of the test, the test compound was dissolved or suspended in 0.5% w/v methylcellulose (0.5% MC) and orally administered. Two hours after administration of the test compound, 50 μL of 300 nM substance P dissolved in saline was intradermally administered to the back of the mouse neck. The blank was a non-pruritus-induced group orally administered with 0.5% MC instead of the test compound and intradermally administered with saline instead of substance P, and the pruritus induction control was a group orally administered with 0.5% MC instead of the test compound. The pruritus measurement system for small animals, MicroAct II, automatically measured pruritus behavior for 30 minutes immediately after intradermal administration.

[7] = finer grading of compounds rated A in Evaluation 1, read-out: PDE4 Inhibitory Activity (Evaluation 2)

| SMILES | IC50 (PDE4; [7]) [nM] | IC50 (PDE4; scintillation proximity assay, read-out: PDE4 Inhibitory Activity (Evaluation 1; concentration for the inhibition rate of 50%)) [nM] | PDE4 inhibitory activity (PDE4; summary in words of Tables 57 to 69) | Residual ratio (% remaining for 30-minute reaction) [1] | IC50 (TNFα [2]) [nM] | Mouse Chronic Dermatitis Model (Test Example 8), Oral: edema suppression rate ([3]; oral, 0.3 to 10 mg/kg twice a day for 10 days) | Mouse Chronic Dermatitis Model (Test Example 8), Topical: edema suppression rate [3] | Mouse DTH Model (Test Example 11), Topical: edema suppression rate [4] | IC50 (TNFα [5]) [nM] | scratching behavior (pruritus behavior for 30 minutes) [6] |
| --- | --- | --- | --- | --- | --- | --- | --- | --- | --- | --- |
| CC(O)C(F)(F)Oc1ccc(-c2nccs2)c2oc(N3CC4CC(C3)N4)nc12 (single isomer, unassigned) [Example 251, 1-((2-(3,6-Diazabicyclo[3.1.1]heptan-3-yl)-7-(thiazol-2-yl)benzo[d]oxazol-4-yl)oxy)-1,1-difluoropropan-2-ol] | ≤ 1 | < 100 | particularly excellent | A (A: a % remaining rate of 75% or more) | < 100 | B (B: 40% or more and less than 70%) | A (A: 100% or more) | B (B: 40% or more and less than 60%) | – | – |
| N#Cc1ccc(Oc2ccc3c(c2)COB3O)cc1 [crisaborole, reference compound] | > 100 | – | – | – | – | – | C (C: less than 70%) | C (C: less than 40%) | > 100 | – |
| CC(C)(C(=O)O)c1ccc(C(O)CCCN2CCC(C(O)(c3ccccc3)c3ccccc3)CC2)cc1 (stereo not shown) [fexofenadine, reference compound] | – | – | – | – | – | – | – | – | – | did not suppress scratching behavior |
